In patent publication US8552208B2, “Analogs of tetramic acid” (University of Tennesseee Research Foundation, priority 2007, dated 2013):
≈ marks a conversion by molar mass, not a printed value. Where “and” joins values, the source holds several entries; their conditions need not be identical. Identical values can stand only once. Like-named read-outs stand apart in the source and are kept apart here.

Experiments:
[1] = tested on: Bacillus subtilis ATCC 23857; assay: Antibacterial activity assay (MIC, broth dilution); type: cell-based
[2] = tested on: Streptococcus pneumoniae DAW30EC; assay: Antibacterial activity assay (MIC, broth dilution); type: cell-based; settings: read-out: MIC, SPn
[3] = tested on: MSSA (ATCC 25293) biofilm; assay: Calgary Biofilm Device anti-biofilm activity; type: cell-based; settings: Staphylococcus aureus; for MBC: read-out: MBEC = Minimum Biofilm Eradication Concentration; for MIC: read-out: MBIC = Minimum Biofilm Inhibitory Concentration
[4] = tested on: Methicillin Resistant Staphylococcus aureus ATCC 33591; assay: Antibacterial activity assay (MIC, broth dilution); type: cell-based; settings: ATCC 33591 / MRSA, read-out: MIC, MRSA
[5] = tested on: Enterococcus faecalis ATCC 33186; assay: Antibacterial activity assay (MIC, broth dilution); type: cell-based
[6] = tested on: Bacillus anthracis Sterne 34F2; assay: microbe, parasite or virus in culture; type: cell-based; settings: STERNE34F2, read-out: MIC, BA
[7] = tested on: Streptococcus pyogenes ATCC 700294; assay: Antibacterial activity assay (MIC, broth dilution); type: cell-based
[8] = tested on: clinical isolates of MSSA (methicillin sensitive S. aureus); type: cell-based
[9] = tested on: clinical isolates of MRSA (methicillin resistant S. aureus); type: cell-based
[10] = tested on: Methicillin sensitive Staphylococcus aureus 8325 ATCC 35556; assay: Antibacterial activity assay (MIC, broth dilution); type: cell-based; settings: ATCC 35556 / MSSA, read-out: MIC, MSSA
[11] = tested on: S. epidermidis (RP62A) biofilm; assay: Calgary Biofilm Device anti-biofilm activity; type: cell-based; settings: Staphylococcus epidermidis, S. epidermidis biofilm, triplicate runs listed singly; for MBC: read-out: MBEC = Minimum Biofilm Eradication Concentration; for MIC: read-out: MBIC = Minimum Biofilm Inhibitory Concentration
[12] = tested on: Mycobacterium tuberculosis H37 Rv; assay: Antibacterial activity assay (MIC, broth dilution); type: cell-based; settings: H37RV, 168 h, read-out: MIC, TB
[13] = tested on: methicillin-sensitive S. aureus ATCC 29213; assay: Superficial skin infection model in mice; type: in vivo, Balb/c mice; settings: topical, twice daily for three days, bacteria in lesions on day 5, placebo 8.15 +/− 0.37
Protocol: Compounds of the invention were tested for the ability to treat skin infections utilizing an established animal model of skin infection. The superficial skin infection model used in this study was previously developed by Kugelberg et al, “Establishment of a Superficial Skin Infection Model in Mice using Staphylococcus aureus and Streptococcus pyogenes”, Antimicrob. Agents Chemother., 49(8):3435-3441 (2005).
Superficial infections in Balb/c mice (male) were caused by first removing hair from the backs of mice with an electric shaver, followed by dry shaving with a razor and tape stripping with Tensoplast® (BSN Medical Inc., Charlotte, N.C.) adhesive bandage to remove the epidermis, followed by infection with a 5 μl bacterial suspension containing about 10^7 bacterial cells of methicillin-sensitive S. aureus ATCC 29213, a strain from a previous isolate from a human wound infection and used in other murine infection studies. After 4 hours of infection, treatment was started by administering 45-50 mg of ointment containing (i) vehicle hydrophilic petrolatum (placebo) (ii) 2% w/w mupirocin ointment (Bactroban®, GlaxoSmithKline plc., United Kingdom) in vehicle or (iii) 2% tetramic acid analogue of the invention (13b) in vehicle, (iv) 10% tetramic acid analogue of the invention (13b) in vehicle, (v) 2% tetramic acid analogue of the invention (13l) in vehicle, or (vi) 10% tetramic acid analogue of the invention (13l) in vehicle. Treatment was continued for three days with drug application twice daily at 8 hour intervals. On day 5, mice were sacrificed and the numbers of bacteria in lesions were enumerated.
This conclusion stems from statistical analysis of the resulting means by one way ANOVA followed by Tukey's test at P<0.01 with Placebo as the control group. Therefore, the tetramic acid analogues of the invention have the potential to be used clinically for the treatment of skin infections, such as those caused by Staphylococcus aureus.

[14] = tested on: Vero monkey kidney cell line (ATCC, CCL-81); assay: Cytotoxicity assay (MTT); type: cell-based; settings: IC50 divided by MIC against S. aureus 8325
Protocol: (§1) Cytotoxicity assays of drugs of Formula I of Example 3 and of Formula II of Example 5 were performed using the Vero monkey kidney cell line (ATCC, CCL-81). Vero cells were grown in tissue culture flasks in Dulbecco's Modified Eagle's Medium (ATCC) supplemented with 10% fetal bovine serum and maintained in a humidified incubator (37° C., 5% CO2). Cells were removed with a cell scraper, collected by centrifugation and then suspended in fresh medium at ˜10^6 cells/mL. The cell suspensions were dispensed into 96-well microtiter plates (100 μl/well) and incubated for 18 hours at 37° C. before being used for cytotoxicity assays. Test compounds were subsequently added at concentrations ranging from 400-0.024 μg/mL and 0.1% vol/vol of Triton-X 100, which causes 100% death of cells, was included as a control. After incubating cells and compounds for 72 hours in humid air (37° C., 5% CO2) the cytopathic effects of compounds were determined using the MTT Cell Proliferation Assay (ATCC, Cat No. 30-1010K). The MTT solution reagent (10 μl) was added to each well and plates incubated at 37° C. until sufficient purple color development occurred in cells (3 hours). After detergent cell lysis, the purple formazan product was measured at 570 nm in a Synergy HT Biotek microplate reader. IC50 data was obtained from dose response curves plotted from percentage activity versus log10 concentration using Graphpad prism 5.

[15] = Cytotoxicity assay (MTT); type: cell-based, monkey; settings: monkey, Vero monkey kidney cells (ATCC CCL-81); Vero cells, 72 hours, MTT; read-out: IC50 (Cytotoxicity): Concentration which reduces viability of Vero kidney cells by 50%
Protocol: as §1

[16] = tested on: MRSA (ATCC 35391) biofilm; assay: Calgary Biofilm Device anti-biofilm activity; type: cell-based, Staphylococcus aureus; settings: Staphylococcus aureus, triplicate runs listed singly; for MIC: read-out: MBIC = Minimum Biofilm Inhibitory Concentration
[17] = tested on: Propionibacterium acnes ATCC 6919; assay: Antibacterial activity assay (MIC, broth dilution); type: cell-based; settings: Cutibacterium acnes
[18] = tested on: Staphylococcus aureus; assay: Selection of single-step resistant mutants; type: cell-based; settings: from a population of 10^10 cells
[19] = ATCC23857, Bacillus subtilis ATCC 23857, read-out: MIC, BS
[20] = Streptococcus pneumoniae DAW30EC
[21] = MSSA biofilm, triplicate runs listed singly
[22] = ATCC33186, Enterococcus faecalis ATCC 33186, read-out: MIC, EF
[23] = ATCC700294, Streptococcus pyogenes ATCC 700294, read-out: MIC, SP
[24] = Methicillin sensitive Staphylococcus aureus 8325 ATCC 35556
[25] = Mycobacterium tuberculosis H37 Rv, […]
[26] = ATCC6919, Propionibacterium acnes ATCC 6919, read-out: MIC, PA
[27] = MRSA biofilm, read-out: MBEC = Minimum Biofilm Eradication Concentration

Compound | MBC [3, 21] [µg/mL] | MIC [3, 21] [µg/mL] | MIC [4] [µg/mL] | MIC [6] [µg/mL] | Antibiotic MIC ([9]; isolate MRSA-1) [µg/mL] | Antibiotic MIC ([9]; isolate MRSA-2) [µg/mL] | Antibiotic MIC ([9]; isolate MRSA-3) [µg/mL] | Antibiotic MIC ([9]; isolate MRSA-4) [µg/mL] | Antibiotic MIC ([9]; isolate MRSA-5) [µg/mL] | Antibiotic MIC ([9]; isolate MRSA-6) [µg/mL] | Antibiotic MIC ([9]; isolate MRSA-7) [µg/mL] | Antibiotic MIC ([9]; isolate MRSA-8) [µg/mL] | Antibiotic MIC ([9]; isolate MRSA-9) [µg/mL] | Antibiotic MIC ([9]; isolate MRSA-10) [µg/mL] | MBC [11] [µg/mL] | MIC [11] [µg/mL] | Mean Bacterial Count (log10) +/− SD ([13]; 2% ointment) | IC50/MIC = Selectivity (therapeutic) index [14] | IC50 at 72 h [15] [µg/mL] | MIC ([16]; MRSA biofilm) [µg/mL] | further results
CCCCCCCCCCN1C(=O)/C(=C(/C)O)C(=O)[C@@H]1CC(C)C [Compound 13b, (S,Z)-1-decyl-3-(1-hydroxyethylidene)-5-isobutylpyrrolidine-2,4-dione] | 100 (≈ 296 µM) | 0.8 (≈ 2.37 µM) | 0.8 (≈ 2.37 µM) | 0.8 (≈ 2.37 µM) | 0.8 | 0.8 | 0.8 | 0.8 | 0.8 | 1.6 | 0.8 | 0.4 | 0.8 | 0.8 | 50 (≈ 148 µM) | 0.4 (≈ 1.19 µM) | 8.08 +/− 0.28 log10 | 36.8 | 14.7 | 0.8 (≈ 2.37 µM) | MIC [1, 19]: 0.8 µg/mL (≈ 2.37 µM); MIC [2, 20]: 6.25 µg/mL (≈ 18.5 µM); MIC [5, 22]: 1.6 µg/mL (≈ 4.74 µM); MIC [7, 23]: 50 µg/mL (≈ 148 µM); Antibiotic MIC ([8]; isolate MSSA-11): 0.8 µg/mL; Antibiotic MIC ([8]; isolate MSSA-12): 0.4 µg/mL; Antibiotic MIC ([8]; isolate MSSA-13): 0.4 µg/mL; Antibiotic MIC ([8]; isolate MSSA-14): 0.4 µg/mL; Antibiotic MIC ([8]; isolate MSSA-15): 0.4 µg/mL; Antibiotic MIC ([8]; isolate MSSA-16): 0.4 µg/mL; Antibiotic MIC ([8]; isolate MSSA-17): 0.4 µg/mL; Antibiotic MIC ([8]; isolate MSSA-18): 0.4 µg/mL; Antibiotic MIC ([8]; isolate MSSA-19): 0.4 µg/mL; Antibiotic MIC ([8]; isolate MSSA-20): 0.8 µg/mL; MIC [10, 24]: 0.4 µg/mL (≈ 1.19 µM); MIC [12, 25]: 12.5 µg/mL (≈ 37 µM); Mean Bacterial Count (log10) +/− SD ([13]; 10% ointment): 6.47 +/− 0.58 log10; MBC ([16]; read-out: MBEC = Minimum Biofilm Eradication Concentration, MRSA biofilm): 6.25 µg/mL (≈ 18.5 µM); MIC [17, 26]: 0.8 µg/mL (≈ 2.37 µM); single-step mutants resistant to the compound [18]: could not be obtained
C/C(O)=C1\C(=O)[C@H](CC(C)C)N(Cc2ccc(-c3ccccc3)cc2)C1=O [Compound 13k, (S,Z)-1-(biphenyl-4-ylmethyl)-3-(1-hydroxyethylidene)-5-isobutylpyrrolidine-2,4-dione] | 100 (≈ 275 µM) | 3.12 (≈ 8.58 µM) | 0.8 (≈ 2.2 µM) | 0.4 (≈ 1.1 µM) | 1.6 | 1.6 | 1.6 | 1.6 | 1.6 | 0.8 | 0.8 | 0.4 | 1.6 | 0.8 | 200 (≈ 550 µM) | 1.6 (≈ 4.4 µM) | – | >197 | 19.7 | 0.8 (≈ 2.2 µM) | MIC [1, 19]: 0.4 µg/mL (≈ 1.1 µM); MIC [2, 20]: 12.5 µg/mL (≈ 34.4 µM); MIC [5, 22]: 0.8 µg/mL (≈ 2.2 µM); MIC [7, 23]: 25 µg/mL (≈ 68.8 µM); Antibiotic MIC ([8]; isolate MSSA-11): 1.6 µg/mL; Antibiotic MIC ([8]; isolate MSSA-12): 0.8 µg/mL; Antibiotic MIC ([8]; isolate MSSA-13): 0.8 µg/mL; Antibiotic MIC ([8]; isolate MSSA-14): 0.8 µg/mL; Antibiotic MIC ([8]; isolate MSSA-15): 0.4 µg/mL; Antibiotic MIC ([8]; isolate MSSA-16): 0.8 µg/mL; Antibiotic MIC ([8]; isolate MSSA-17): 0.8 µg/mL; Antibiotic MIC ([8]; isolate MSSA-18): 0.8 µg/mL; Antibiotic MIC ([8]; isolate MSSA-19): 0.8 µg/mL; Antibiotic MIC ([8]; isolate MSSA-20): 0.8 µg/mL; MIC [10, 24]: < 0.1 µg/mL; MIC [12, 25]: 50 µg/mL (≈ 138 µM); MBC [16, 27]: 100 µg/mL (≈ 275 µM); MIC [17, 26]: 0.2 µg/mL (≈ 0.55 µM)
C/C(O)=C1\C(=O)[C@H](CC(C)C)N(CC2=CCC3CC2C3(C)C)C1=O (stereo partly drawn) [Compound 13l, (5S,Z)-1-((6,6-dimethylbicyclo[3.1.1]hept-2-en-2-yl)methyl)-3-(1-hydroxyethylidene)-5-isobutylpyrrolidine-2,4-dione] | > 400 | – | 1.6 (≈ 4.83 µM) | 0.8 (≈ 2.41 µM) | 3.12 | 3.12 | 3.12 | 3.12 | 3.12 | 3.12 | 3.12 | 0.4 | 3.12 | 3.12 | > 400 | 1.6 (≈ 4.83 µM) | 7.67 +/− 0.21 log10 | 22.1 | 35.4 | 1.6 (≈ 4.83 µM) | MIC ([1]; Bacillus subtilis, ATCC23857, read-out: MIC, BS): 1.6 µg/mL (≈ 4.83 µM); MIC ([2]; Streptococcus pneumoniae, DAW30EC): 50 µg/mL (≈ 151 µM); MIC [3]: 3.12 µg/mL (≈ 9.41 µM); MIC ([5]; Enterococcus faecalis, ATCC33186, read-out: MIC, EF): 1.6 µg/mL (≈ 4.83 µM); MIC ([7]; Streptococcus pyogenes, ATCC700294, read-out: MIC, SP): 25 µg/mL (≈ 75.4 µM); Antibiotic MIC [8]: 3.2 µg/mL and 1.6 µg/mL; MIC ([10]; Staphylococcus aureus): 1.6 µg/mL (≈ 4.83 µM); MIC ([12]; Mycobacterium tuberculosis): 100 µg/mL (≈ 302 µM); Mean Bacterial Count (log10) +/− SD ([13]; 10% ointment): 6.51 +/− 0.67 log10; MBC [16, 27]: > 400 µg/mL; MIC ([17]; ATCC6919, read-out: MIC, PA): 0.8 µg/mL (≈ 2.41 µM)
C/C(=C\C(=O)OCCCCCCCCC(=O)O)C[C@@H]1OC[C@H](C[C@@H]2O[C@H]2[C@@H](C)[C@H](C)O)[C@@H](O)[C@H]1O [Mupirocin, mupirocin, reference compound] | > 400 | < 0.2 | – | – | – | – | – | – | – | – | – | – | – | – | > 400 | < 0.2 | 5.95 +/− 0.92 log10 | – | – | < 0.2 | MBC [16, 27]: > 400 µg/mL
